Laboratory results taken from ChEMBL document CHEMBL3396968, “Isolation and cytotoxicity evaluation of taxanes from the barks of Taxus wallichiana var. mairei” (Bioorg Med Chem Lett, 2015).
pIC50: −log10 of the molar value.

Columns and labels:
[1] = Antiproliferative activity against human A549/CDDP cells assessed as growth inhibition after 48 hrs by sulforhodamine B assay; type: functional, cell-based; conditions: A549, 48 h
[2] = system: MCF7; experiment: Antiproliferative activity against human MCF7 cells assessed as growth inhibition after 48 hrs by sulforhodamine B assay; type: functional, cell-based; conditions: MCF7, 48 h
[3] = system: A2780; experiment: Antiproliferative activity against human A2780 cells assessed as growth inhibition after 48 hrs by sulforhodamine B assay; type: functional, cell-based; conditions: A2780, 48 h
[4] = Antiproliferative activity against human HCT8/VCT cells assessed as growth inhibition after 48 hrs by sulforhodamine B assay; type: functional, cell-based
[5] = system: A549; experiment: Antiproliferative activity against human A549 cells assessed as growth inhibition after 48 hrs by sulforhodamine B assay; type: functional, cell-based; conditions: A549, 48 h
[6] = Antiproliferative activity against mouse NIH/3T3 cells assessed as growth inhibition after 48 hrs by sulforhodamine B assay; type: cell-based; conditions: NIH3T3, 48 h
[7] = Antiproliferative activity against human HCT8 cells assessed as growth inhibition after 48 hrs by sulforhodamine B assay; type: functional, cell-based; conditions: HCT-8, 48 h
[8] = Antiproliferative activity against human A2780/TAX cells assessed as growth inhibition after 48 hrs by sulforhodamine B assay; type: functional, cell-based
[9] = Antiproliferative activity against human MCF7/DX cells assessed as growth inhibition after 48 hrs by sulforhodamine B assay; type: functional, cell-based
[10] = system: HepG2; experiment: Antiproliferative activity against human HepG2 cells assessed as growth inhibition after 48 hrs by sulforhodamine B assay; type: functional, cell-based; conditions: HepG2, 48 h
[11] = system: SW480; experiment: Antiproliferative activity against human SW480 cells assessed as growth inhibition after 48 hrs by sulforhodamine B assay; type: functional, cell-based; conditions: SW480, 48 h

Row | SMILES | pIC50 [1] | pIC50 [2] | pIC50 [3] | pIC50 [4] | pIC50 [5] | pIC50 [6] | pIC50 [7] | pIC50 [8] | pIC50 [9] | pIC50 [10] | pIC50 [11]
1 | CC(=O)O[C@H]1C(=O)[C@@]2(C)[C@H]([C@H](OC(=O)c3ccccc3)[C@]3(O)C[C@H](OC(=O)[C@H](O)[C@@H](NC(=O)OC(C)(C)C)c4ccccc4)C(C)=C1C3(C)C)[C@]1(OC(C)=O)CO[C@@H]1C[C@@H]2O | > 8.70 | > 8.70 | > 8.70 | 6.05 | > 8.70 | > 8.70 | > 8.70 | 6.38 | > 8.70 |  | 
2 | C=C1[C@@H](O[C@@H]2O[C@H](CO)[C@@H](O)[C@H](O)[C@H]2O)C[C@H](OC(C)=O)[C@]2(C)[C@@H]1C[C@@H]1C[C@H](O)C(C)=C([C@@H](OC(C)=O)[C@@H]2OC(C)=O)C1(C)C | < 4.60 | < 4.60 | < 4.60 | < 4.60 | 5.66 | < 4.60 | < 4.60 | < 4.60 | < 4.60 | 5.21 | 4.80
3 | CC(=O)O[C@H]1C(=O)[C@@]2(C)[C@H]([C@H](OC(=O)c3ccccc3)[C@]3(O)C[C@H](O)C(C)=C1C3(C)C)[C@]1(OC(C)=O)CO[C@@H]1C[C@@H]2O [BACCATIN III] | 4.62 | 5.13 | < 4.60 | < 4.60 | < 4.60 | < 4.60 | 4.92 | < 4.60 | < 4.60 |  | 
4 | CC(=O)O[C@H]1C(=O)[C@]2(C)[C@@H](O[C@@H]3OC[C@@H](O)[C@H](O)[C@H]3O)C[C@H]3OC[C@@]3(OC(C)=O)[C@H]2[C@H](OC(=O)c2ccccc2)[C@]2(O)C[C@H](OC(=O)[C@H](O)[C@@H](NC(=O)c3ccccc3)c3ccccc3)C(C)=C1C2(C)C | 6.04 | 6.80 | 6.07 | < 4.60 | 6.41 | < 4.60 | 5.23 | < 4.60 | < 4.60 | 5.92 | 5.25
5 | C=C1[C@@H](OC(=O)/C=C/c2ccccc2)C[C@H](OC(C)=O)[C@]2(C)[C@@H]1C[C@@H]1C[C@H](OC(C)=O)C(C)=C([C@@H](OC(C)=O)[C@@H]2OC(C)=O)C1(C)C | 5.15 | < 4.60 | 5.01 | 4.92 | 5.03 | 4.82 | 4.96 | < 4.60 | < 4.60 | < 4.60 | < 4.60
6 | CC(=O)O[C@@]12CO[C@@H]1C[C@@H](O)[C@@]1(C)C(=O)[C@H](O)C3=C(C)[C@@H](OC(=O)[C@H](O)[C@@H](NC(=O)c4ccccc4)c4ccccc4)C[C@@](O)([C@@H](OC(=O)c4ccccc4)[C@H]21)C3(C)C | 7.62 | 7.92 | 7.52 | 4.96 | 7.96 | 5.66 | 4.89 | 5.14 | < 4.60 | 7.02 | 7.23
7 | CC(=O)O[C@@]12CO[C@@H]1C[C@H](O[C@@H]1OC[C@@H](O)[C@H](O)[C@H]1O)[C@@]1(C)C(=O)[C@H](O)C3=C(C)[C@@H](OC(=O)[C@H](O)[C@@H](NC(=O)c4ccccc4)c4ccccc4)C[C@@](O)([C@@H](OC(=O)c4ccccc4)[C@H]21)C3(C)C | 5.60 | 6.10 | 5.80 | < 4.60 | 5.68 | < 4.60 | 6.59 | < 4.60 | 5.85 | 5.52 | 4.80
8 | CCCCCC(=O)N[C@@H](c1ccccc1)[C@@H](O)C(=O)O[C@H]1C[C@@]2(O)[C@@H](OC(=O)c3ccccc3)[C@@H]3[C@]4(OC(C)=O)CO[C@@H]4C[C@H](O[C@@H]4OC[C@@H](O)[C@H](O)[C@H]4O)[C@@]3(C)C(=O)[C@H](O)C(=C1C)C2(C)C | 6.19 | < 4.60 | 5.82 | < 4.60 | 4.72 | < 4.60 | 5.07 | < 4.60 | < 4.60 | < 4.60 | < 4.60
9 | C/C=C(\C)C(=O)N[C@@H](c1ccccc1)[C@@H](O)C(=O)O[C@H]1C[C@@]2(O)[C@@H](OC(=O)c3ccccc3)[C@@H]3[C@]4(OC(C)=O)CO[C@@H]4C[C@H](O[C@@H]4OC[C@@H](O)[C@H](O)[C@H]4O)[C@@]3(C)C(=O)[C@H](O)C(=C1C)C2(C)C | 5.51 | 6.85 | 5.46 | < 4.60 | 5.72 | < 4.60 | < 4.60 | < 4.60 | < 4.60 | 5.41 | 4.70
10 | C/C=C(\C)C(=O)N[C@@H](c1ccccc1)[C@@H](O)C(=O)O[C@H]1C[C@@]2(O)[C@@H](OC(=O)c3ccccc3)[C@@H]3[C@]4(OC(C)=O)CO[C@@H]4C[C@H](O)[C@@]3(C)C(=O)[C@H](OC(C)=O)C(=C1C)C2(C)C [CEPHALOMANNINE] | 8.30 | 8.40 | 7.89 | 5.14 | 8.10 | 6.22 | < 4.60 | 5.31 | 5.15 | 7.70 | 7.48
11 | C=C1[C@@H](OC(=O)C[C@H](c2ccccc2)N(C)C)C[C@H](OC(C)=O)[C@]2(C)[C@@H]1C[C@@H]1C[C@H](OC(C)=O)C(C)=C([C@@H](OC(C)=O)[C@@H]2OC(C)=O)C1(C)C | 4.85 | 7.40 | 5.29 | < 4.60 | 4.92 | 5.00 | < 4.60 | < 4.60 | < 4.60 | 4.82 | < 4.60
12 | C=C1[C@@H](O)C[C@H](OC(C)=O)[C@@]2(COC(=O)c3ccccc3)[C@@H](OC(C)=O)[C@H](OC(C)=O)[C@@]3(O)[C@]4(C)OC[C@]3(C)C(CC4=O)[C@@H](OC(C)=O)[C@H]12 [TAXININE M] | < 4.60 | < 4.60 | < 4.60 | < 4.60 | 4.92 | < 4.60 | < 4.60 | < 4.60 | < 4.60 | < 4.60 | 4.80
13 | CC(=O)O[C@H]1C(=O)[C@@]2(C)[C@H]([C@H](OC(=O)c3ccccc3)[C@]3(O)C[C@H](OC(=O)[C@H](O)[C@@H](NC(=O)c4ccccc4)c4ccccc4)C(C)=C1C3(C)C)[C@]1(OC(C)=O)CO[C@@H]1C[C@@H]2O [PACLITAXEL] |  |  |  |  |  | 6.24 | 7.18 | 5.36 | 5.21 | 8.05 | 7.68
14 | C/C=C(\C)C(=O)N[C@@H](c1ccccc1)[C@@H](O)C(=O)O[C@H]1C[C@@]2(O)[C@@H](OC(=O)c3ccccc3)[C@@H]3[C@]4(OC(C)=O)CO[C@@H]4C[C@H](O[C@@H]4OC[C@@H](O)[C@H](O)[C@H]4O)[C@@]3(C)C(=O)[C@H](OC(C)=O)C(=C1C)C2(C)C | < 4.60 | 7.54 | < 4.60 | < 4.60 | 5.66 | < 4.60 | < 4.60 | 4.77 | < 4.60 | 5.24 | 5.14
15 | CC(=O)O[C@@]12CO[C@@H]1C[C@H](O)[C@@]1(C)C(=O)[C@H](O)C3=C(C)[C@@H](O)C[C@@](O)([C@@H](OC(=O)c4ccccc4)[C@H]21)C3(C)C | 4.60 | 4.77 | < 4.60 | < 4.60 | 4.68 | < 4.60 | < 4.60 | 4.80 | < 4.60 |  | 
